In US20090054421A1, “Pyrimidothiophene Compounds Having HSP90 Inhibitory Activity” (Vernalis R & D Limited, priority 2005, published 2009):

Biological target: T1, human full-length HSP90 (Homo sapiens, UniProt P08238)
T1 construct: E. coli expressed human full-length HSP90 protein, purified >95%; made in house; host or cells: E. coli
Assay: Fluorescence polarization assay (competitive displacement of fluorescein-labelled probe from HSP90)
Assay type: binding
Conditions: activity range A or B
From the text: Fluorescence Polarization Assay
Fluorescence polarization {also known as fluorescence anisotropy} measures the rotation of a fluorescing species in solution, where the larger molecule the more polarized the fluorescence emission. When the fluorophore is excited with polarized light, the emitted light is also polarized. The molecular size is proportional to the polarization of the fluorescence emission.
The fluoroscein-labelled probe—
binds to HSP90 {full-length human, full-length yeast or N-terminal domain HSP90} and the anisotropy {rotation of the probe:protein complex} is measured.
Test compound is added to the assay plate, left to equilibrate and the anisotropy measured again. Any change in anisotropy is due to competitive binding of compound to HSP90, thereby releasing probe.
Chemicals are of the highest purity commercially available and all aqueous solutions are made up in AR water. • 1) Costar 96-well black assay plate #3915 • 2) Assay buffer of (a) 100 mM Tris pH7.4; (b) 20 mM KCl; (c) 6 mM MgCl2. Stored at room temperature. • 3) BSA (bovine serum albumen) 10 mg/ml (New England Biolabs # B9001S) • 4) 20 mM probe in 100% DMSO stock concentration. Stored in the dark at RT. Working concentration is 200 nM diluted in AR water and stored at 4° C., Final concentration in assay 80 nM. • 5) E. coli expressed human full-length HSP90 protein, purified >95% (see, e.g., Panaretou et al., 1998) and stored in 50 μL aliquots at −80° C.
• 1) Add 100 μl 1× buffer to wells 11A and 12A (=FP BLNK) • 2) Prepare assay mix—all reagents are kept on ice with a lid on the bucket as the probe is light-sensitive.
• 3) Aliquot 100 μl assay mix to all other wells • 4) Seal plate and leave in dark at room temp for 20 minutes to equilibrate Compound Dilution Plate—1×3 dilution series • 1) In a clear 96-well v-bottom plate—{# VWR 007/008/257} add 10 μl 100% DMSO to wells B1 to H11 • 2) To wells A1 to A11 add 17.5 μl 100% DMSO • 3) Add 2.5 μl cpd to A1. This gives 2.5 mM {50×} stock cpd—assuming cpds 20 mM. • 4) Repeat for wells A2 to A10. Control in columns 11 and 12. • 5) Transfer 5 μl from row A to row B—not column 12. Mix well. • 6) Transfer 5 μl from row B to row C. […] In column 11 {provides standard curve} only add compound B11-H11. Add 2 μl of 100 mM standard cpd to wells B12-H12 {is positive control} • 13) The Z′ factor is calculated from zero controls and positive wells. It typically gives a value of 0.7-0.9.
The compounds tested in the above assay were assigned to one of two activity ranges, namely A=<10 μM; B=>10 μM, and those assignments are reported above.

T1 sequence (P08238 whole entry): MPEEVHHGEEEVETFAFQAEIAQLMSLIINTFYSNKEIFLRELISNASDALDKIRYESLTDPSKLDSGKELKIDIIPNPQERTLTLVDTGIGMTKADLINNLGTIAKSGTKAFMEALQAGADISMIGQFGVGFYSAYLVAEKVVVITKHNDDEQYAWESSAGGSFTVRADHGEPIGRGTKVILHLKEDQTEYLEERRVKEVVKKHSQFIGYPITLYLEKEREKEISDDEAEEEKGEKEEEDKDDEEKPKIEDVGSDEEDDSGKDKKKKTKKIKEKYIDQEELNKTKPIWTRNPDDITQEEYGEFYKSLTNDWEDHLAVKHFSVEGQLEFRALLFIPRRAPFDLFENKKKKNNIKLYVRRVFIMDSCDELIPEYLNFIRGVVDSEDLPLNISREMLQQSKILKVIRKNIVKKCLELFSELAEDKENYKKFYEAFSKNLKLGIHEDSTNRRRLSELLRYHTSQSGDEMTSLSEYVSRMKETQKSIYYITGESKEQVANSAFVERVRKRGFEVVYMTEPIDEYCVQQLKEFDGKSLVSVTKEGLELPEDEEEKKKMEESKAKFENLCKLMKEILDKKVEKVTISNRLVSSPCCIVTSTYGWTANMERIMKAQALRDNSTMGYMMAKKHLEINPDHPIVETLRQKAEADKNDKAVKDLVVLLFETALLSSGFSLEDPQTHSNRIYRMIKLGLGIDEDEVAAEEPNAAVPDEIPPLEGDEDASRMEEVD

| IC50 [µM] | SMILES |
| --- | --- |
| < 10 | CCNC(=O)c1cc2c(C(=NO)c3ccc4[nH]ccc4c3)nc(N)nc2s1 [Example 18] |
| < 10 | CCNC(=O)c1cc2c(C(=NO)c3ccc(OC)c(OC)c3)nc(N)nc2s1 [Example 15] |
| < 10 | Nc1nc(C(=NO)c2ccc3c(c2)OCO3)c2cc(C(=O)NC3CC3)sc2n1 [Example 20, 2-Amino-4-(benzo[1,3]dioxol-5-yl-hydroxyimino-methyl)-thieno[2,3-d]pyrimidine-6-carboxylic acid cyclopropylamide] |
| < 10 | CCNC(=O)c1cc2c(C(=NOCCN3CCCC3)c3ccco3)nc(N)nc2s1 [Example 43] |
| < 10 | COCCNC(=O)c1cc2c(C(=NOCCN3CCCC3)c3ccc4c(c3)OCO4)nc(N)nc2s1 [Example 53] |
| > 10 | CCNC(=O)c1cc2c(C(=NOCCN(CC)CC)c3ccco3)nc(N)nc2s1 [Example 37] |
| < 10 | CCN(CC)CCON=C(c1ccc2c(c1)OCO2)c1nc(N)nc2sc(C(=O)NC(C)C)cc12 [Example 44] |
| < 10 | CCNC(=O)c1cc2c(C(=NOCCN3CCCC3=O)c3ccc4c(c3)OCO4)nc(N)nc2s1 (mixture of isomers) [Example 29] |
| < 10 | CC(C)(C)NC(=O)c1cc2c(C(=NO)c3ccc4c(c3)OCO4)nc(N)nc2s1 [Example 21] |
| < 10 | CCNC(=O)c1cc2c(C(=NO)c3ccc(OC)cc3)nc(N)nc2s1 [Example 12] |
| > 10 | CCNC(=O)c1cc2c(C(=NOCCN3CCCC3)c3cccs3)nc(N)nc2s1 [Example 39] |
| < 10 | CCNC(=O)c1cc2c(C(=NO)c3ccc4c(c3)OCCN4C)nc(N)nc2s1 (mixture of isomers) [Example 2, 2-Amino-4-[hydroxyimino-(4-methyl-3,4-dihydro-2H-benzo[1,4]oxazin-7-yl)-methyl]-thieno[2,3-d]pyrimidine-6-carboxylic acid ethylamide] |
| < 10 | CCNC(=O)c1cc2c(C(=NOCCN3CCCC3)c3ccc4c(c3)OCO4)nc(N)nc2s1 (mixture of isomers) [Example 28] |
| < 10 | CCNC(=O)c1cc2c(C(=NOCC(=O)N3CCCCC3)c3ccc4c(c3)OCO4)nc(N)nc2s1 [Example 35] |
| < 10 | CCNC(=O)c1cc2c(C(=NO)c3ccccn3)nc(N)nc2s1 [Example 5] |
